Consider one molecule from patent publication US8173668B1 (Alcon Research, Ltd., priority 2007, dated 2012).

The test system of test [1] is ocular normotensive mice. Nature of the test: Acute IOP response in mouse eyes. The test is classed as in vivo. Particulars: 0.1% topical, IOP at 6 and 24 hours; FIG. 7. The procedure:
IOP is determined with an applanation pneumatonometer after light corneal anesthesia with 0.1% proparacaine. After baseline IOP measurements were taken, one eye of each of 8 mice was topically dosed with 0.1% FR-190997 in the formulation described in Example 10 or the vehicle of Example 10. The contralateral eye was dosed with vehicle as a control. Subsequent IOP measurements were taken at 6 and 24 hours.

The subject of test [2] is anterior eye segments of pig eyes. Nature of the test: Outflow facility in perfused anterior eye segments. Particulars: 1 μM, perfused porcine anterior eye segments, n=5; FIG. 8. The method, then: Anterior eye segments obtained from postmortem porcine eyes were used to study the effects of non-peptide agonists on fluid outflow through the trabecular meshwork and Schlemms' canal (Erickson-Lamey et al., Curr. Eye Res. 7: 799-807, 1988; Vaajanen et al. J. Ocular Pharmacol. Ther. 23: 124-131, 2007). The postmortem eyes were placed in DMEM containing 50 U/ml penicillin, 50 μg/mL streptomycin, and 5 μg/mL amphotericin B prior to dissection under sterile conditions. Eyes were bisected at the to equator and the anterior chamber transferred to a petri dish. The lens was removed and the remaining choroid, iris, and ciliary body gently teased away. […] Perfusion pressure for standard perfusion was maintained at a constant level of 10 mmHg, and rate of fluid outflow monitored continuously (i.e. by means of a Model ACCU 124 analytical balance; Fisher Scientific, Pittsburgh, Pa.) throughout the experiment. The rate of fluid flow was recorded by a computer utilizing Collect XL software (Lab Tronics, Inc; Guelph, Ontario, Canada). Outflow facility was calculated as the ratio of flow rate to perfusion pressure (μL/min/mmHg).
Preparations were allowed to stabilize overnight (14-16 hr), and baseline facilities were then recorded for 40-60 min. […]

For `CNC(=O)c1ccc(/C=C/C(=O)NCC(=O)N(C)c2ccc(Cl)c(COc3cccc4c(OCc5ccccn5)cc(C)nc34)c2Cl)cc1` [FR-190997], the “effect on IOP in ocular normotensive mice” value in test [1] was “lower IOP”. In addition, the outflow facility result in test [2] is given as “increased the outflow facility flow”.
